Data from patent publication US20130178413A1, “HCV NS3 PROTEASE INHIBITORS” (priority 2010, published 2013).
Where two headings read alike, the source gives them in different places.

How the values were obtained:
NS3/4A protease gt 1b = NS3/4A protease gt 1b (Hepatitis C virus genotype 1b, UniProt P26663); test: HCV NS3 protease time-resolved fluorescence (TRF) assay, NS3/4A inhibitory activity (Ki), gt 1b; type: biochemical; conditions: genotype 1b NS3/4A; read-out: Enzyme Activity gt 1b Ki
Method: (§1) The HCV NS3 protease inhibitory activity of the present compounds may be tested using assays known in the art. One such assay is HCV NS3 protease time-resolved fluorescence (TRF) assay as described below and in International Patent Application Publication WO2006/102087. Other examples of such assays are described in e.g., International Patent Application Publication WO2005/046712. HCV NS3 protease inhibitors, such as those described herein have a Ki less than 50 μM, such as less than 10 μM, and less than 100 nM. Ki is determined by an NS3 protease assay. The assay is performed in a final volume of 100 μl in assay buffer containing 50 mM HEPES, pH 7.5, 150 mM NaCl, 15% glycerol, 0.15% TRITON X-100, 10 mM DTT, and 0.1% PEG 8000. NS3 protease is pre-incubated with various concentrations of inhibitors in DMSO for 30 minutes. The reaction is initiated by adding the TRF peptide substrate (final concentration 100 nM). NS3 mediated hydrolysis of the substrate is quenched after 1 hour at room temperature with 100 μl of 500 mM MES, pH 5.5. Product fluorescence is detected using either a VICTOR V2 or FUSION fluorophotometer (Perkin Elmer Life and Analytical Sciences) with excitation at 340 nm and emission at 615 nm with a 400 μs delay. Testing concentrations of different enzyme forms are selected to result in a signal to background ratio (S/B) of 10-30. IC50 values are derived using a standard four-parameter fit to the data. Ki values are derived from IC50 values using the following formula,
(§2) IC50=Ki(1+[S]/KM), Eqn (1),
(§3) where [S] is the concentration of substrate peptide in the reaction and KM is the Michaelis constant. See P. Gallinari et al., 38 BIOCHEM. 5620-32 (1999); P. Gallinari et al., 72 J. VIROL. 6758-69 (1998); M. Taliani et al., 240 ANAL. BIOCHEM. 60-67 (1996).
(§4) One such assay is HCV NS3 protease time-resolved fluorescence (TRF) assay as described below and in Mao et al., Anal Biochem. 373:1-8, 2008 and International Patent Application Publication WO 2006/102087. A NS3 protease assay can be performed, for example, in a final volume of 100 μl assay buffer containing 50 mM HEPES, pH 7.5, 150 mM NaCl, 15% glycerol, 0.15% TRITON X-100, 10 mM DTT, and 0.1% PEG 8000. NS3 and NS4A protease is pre-incubated with various concentrations of inhibitors in DMSO for 30 minutes. The reaction is initiated by adding the TRF peptide substrate (final concentration 100 nM). NS3 mediated hydrolysis of the substrate is quenched after 1 hour at room temperature with 100 μl of 500 mM MES, pH 5.5. Product fluorescence is detected using either a VICTOR V2 or FUSION fluorophotometer (Perkin Elmer Life and Analytical Sciences) with excitation at 340 nm and emission at 615 nm with a 400 μs delay. Testing concentrations of different enzyme forms are selected to result in a signal to background ratio (S/B) of 10-30. IC50 values are derived using a standard four-parameter fit to the data. Ki values are derived from IC50 values using the following formula,
as §3, with “(1996); Mao et al., Analytical Biochemistry 373: 1-8, 2008. Measuring Compound Inhibitory Potency (Replicon EC50 (nM))” for “(1996).”

[1] = molecular target: NS3/4A protease gt 1b A156V (Hepatitis C virus genotype 1b, UniProt P26663, A1182V); test: HCV NS3 protease time-resolved fluorescence (TRF) assay, NS3/4A inhibitory activity (Ki), gt 1b A156V mutant; type: biochemical, hepatitis C virus (HCV)
Method: as §1, §2, §3, §4
as §3, with “(1996); Mao et al., Analytical Biochemistry 373: 1-8, 2008. Measuring Compound Inhibitory Potency (Replicon EC50 (nM))” for “(1996).”

NS3/4A protease gt 3a = NS3/4A protease gt 3a (Hepatitis C virus genotype 3a, UniProt Q81258); test: HCV NS3 protease time-resolved fluorescence (TRF) assay, NS3/4A inhibitory activity (Ki), gt 3a; type: biochemical; conditions: genotype 3a NS3/4A; read-out: Enzyme Activity gt 3a Ki
Method: as §1, §2, §3, §4
as §3, with “(1996); Mao et al., Analytical Biochemistry 373: 1-8, 2008. Measuring Compound Inhibitory Potency (Replicon EC50 (nM))” for “(1996).”

gt 1b Replicon = test: HCV replicon assay, compound inhibitory potency (Replicon EC50); type: cell-based; conditions: Hepatitis C virus, GT1B
Method: Measurement of inhibition by compounds was performed using the HCV replicon system. Several different replicons encoding different HCV genotypes or mutations were used. In addition, potency measurements were made using different formats of the replicon assay, including different ways of measurements and different plating formats. See Jan M. Vrolijk et al., A replicons-based bioassay for the measurement of interferons in patients with chronic hepatitis C, 110 J. VIROLOGICAL METHODS 201 (2003); Steven S. Carroll et al., Inhibition of Hepatitis C Virus RNA Replication by 2′-Modified Nucleoside Analogs, 278(14) J. BIOLOGICAL CHEMISTRY 11979 (2003). However, the underlying principles are common to all of these determinations, and are outlined below.
Stable neomycin phosphotransferase encoding replicon-harboring cell lines were used, so all cell lines were maintained under G418 selection prior to the assay. In some cases the cell lines encoded a luciferase:Neor fusion and could be assayed either directly by determination of RNA copy number, or indirectly through measurement of the luciferase activity.
To initiate an assay, replicon cells were plated in the presence of a dilution series of test compound in the absence of G418. Typically, the assays were performed in a 96-well plate format for manual operation, or a 384 well plate in an automated assay. Replicon cells and compound were incubated for 24-48 hours, depending on the assay. At the end of the assay, cells are washed free of media and compound and then lysed. For direct quantitation, RNA levels were measured by ^32P-probe hybridization and protection, or in a TAQMAN based assay and normalized to cellular cyclophilin A RNA levels. In some cases, luciferase activity was measured using a conventional luciferase assay. In all cases EC50 determinations were calculated as a percent of a DMSO control by fitting the data to a four parameter fit function.

[2] = 10% Fetal Bovine Serum, read-out: gt 1b Replicon EC50 10% FBS
[3] = 50% Normal Human Serum, read-out: gt 1b Replicon EC50 50% NHS

Structure (SMILES) | Ki (NS3/4A protease gt 1b) [nM] | Ki [1] [nM] | Ki (NS3/4A protease gt 3a) [nM] | EC50 (gt 1b Replicon; [2]) [nM] | EC50 (gt 1b Replicon; [3]) [nM]
C=C[C@@H]1C[C@]1(NC(=O)[C@@H]1C[C@@H]2CN1C(=O)[C@H](C1CCCC1)NC(=O)O[C@]1(C)C[C@H]1CCC/C=C/c1cccc3c1CN(C3)C(=O)O2)C(=O)NS(=O)(=O)C1CC1 [Example I-12, (1aR,5S,8S,10R,19E,23aR)-5-cyclopentyl-N-{(1R,2S)-1-[(cyclopropylsulfonyl)carbamoyl]-2-ethenylcyclopropyl}-1a-methyl-3,6,12-trioxo-1a,3,4,5,6,9,10, 14,21,22,23,23a-dodecahydro-1H,8H-7,10:13,15-dimethano cyclopropa[n][4,13,2,8, 11]benzodioxatriaza cyclodocosine-8(12H)-carboxamide] | 0.02 | 1.4 | 12 | 5 | 19
C=C[C@@H]1C[C@]1(NC(=O)[C@@H]1C[C@@H]2CN1C(=O)[C@H](C1CCCC1)NC(=O)O[C@]1(C)C[C@H]1CCCCCc1nc3ccccc3nc1O2)C(=O)NS(=O)(=O)C1CC1 [Example I-28, (1aR,5S,8S,10R,22aR)-5-cyclopentyl-N-{(1R,2S)-1-[(cyclopropylsulfonyl)carbamoyl]-2-ethenylcyclopropyl}-1a-methyl-3,6-dioxo-1,1a,3,4,5,6,9,10,18,19, 20,21,22,22a-tetradecahydro-8H-7,10-methanocyclo propa[18,19][1,10,3,6] dioxadiazacyclonona decino[11,12-b]quinoxaline-8-carboxamide] | 0.04 | 2.7 | 3.2 | 2 | 10
C=C[C@@H]1C[C@]1(NC(=O)[C@@H]1C[C@@H]2CN1C(=O)[C@H](C1CCCC1)NC(=O)O[C@]1(C)CCC[C@H]1CCCCCc1nc3ccc(OC)cc3cc1O2)C(=O)NS(=O)(=O)C1CC1 [Example I-3, (1R,18R,22R,26S,29S)-26-Cyclopentyl-N-((1R,2S)-1-{[(cyclopropylsulfonyl)amino]carbonyl}-2-vinylcyclopropyl)-7-methoxy-22-methyl-24,27-dioxo-2,23-dioxa-11,25,28-triazapentacyclo[26.2.1.0^3,12.0^5,10.0^18,22]hentriaconta-3(12),4,5,7,9,10-hexaene-29-carboxamide] | 0.03 | 3.3 | 0.5 | 6 | 23
CC[C@@H]1C[C@]1(NC(=O)[C@@H]1C[C@@H]2CN1C(=O)[C@H](C1CCCC1)NC(=O)O[C@]1(C)CCC[C@H]1CCCCCc1c(nc3ccccc3c1O)O2)C(=O)NS(=O)(=O)C1CC1 [Example I-18, (3aR,7S,10S,12R,24aR)-7-cyclopentyl-N-{(1R,2R)-1-[(cyclopropylsulfonyl)carbamoyl]-2-ethylcyclopropyl}-19-hydroxy-3a-methyl-5,8-dioxo-1,2,3,3a,5,6,7,8,11,12,20,21,22,23,24, 24a-hexadecahydro-10H-9,12-methano cyclopenta[18,19][1,10,3,6]dioxadiazacyclo nonadecino[11,12-b]quinoline-10-carboxamide] | 0.07 | 42.5 | 9.2 | 30 | 35
C=C[C@@H]1C[C@]1(NC(=O)[C@@H]1C[C@@H]2CN1C(=O)[C@H](C1CCCC1)NC(=O)O[C@]1(C)C[C@H]1CC/C=C/Cn1c(nc3cc(Cl)ccc3c1=O)O2)C(=O)NS(=O)(=O)C1CC1 [Example I-26, (1aR,5S,8S,10R,20E,23aR)-14-chloro-5-cyclopentyl-N-{(1R,2S)-1-[(cyclopropylsulfonyl)carbamoyl]-2-ethenylcyclopropyl}-1a-methyl-3,6,17-trioxo-1,1a,3,4,5,6,9, 10,19,22,23,23a-dodecahydro-8H,17H-7,10-methano cyclopropa[18,19][1,10,3,6,12]dioxatriaza cyclononadecino[11,12-b]quinazoline-8-carboxamide] | 0.02 | 1.6 | 0.8 | 3 | 13
C=C[C@@H]1C[C@]1(NC(=O)[C@@H]1C[C@@H]2CN1C(=O)[C@H](C1CCCC1)NC(=O)O[C@]1(C)CCC[C@H]1CCCCCc1c(nc3ccccc3c1O)O2)C(=O)NS(=O)(=O)C1CC1 [Example I-16, (3aR,7S,10S,12R,24aR)-7-cyclopentyl-N-{(1R,2S)-1-[(cyclopropylsulfonyl)carbamoyl]-2-ethenylcyclopropyl}-19-hydroxy-3a-methyl-5,8-dioxo-1,2,3,3a,5,6,7,8,11,12,20,21,22,23,24, 24a-hexadecahydro-10H-9,12-methano cyclopenta[18,19][1,10,3,6]dioxadiazacyclo nonadecino[11,12-b]quinoline-10-carboxamide] | 0.02 | 2.4 | 1.4 | 9 | 27
C=C[C@@H]1C[C@]1(NC(=O)[C@@H]1C[C@@H]2CN1C(=O)[C@H](C1CCCC1)NC(=O)O[C@@]1(C)C[C@@H]1CC/C=C/Cn1c(nc3cc(Cl)ccc3c1=O)O2)C(=O)NS(=O)(=O)C1CC1 [Example I-25, (1aS,5S,8S,10R,20E,23aS)-14-chloro-5-cyclopentyl-N-{(1R,2S)-1-[(cyclopropylsulfonyl)carbamoyl]-2-ethenylcyclopropyl}-1a-methyl-3,6,17-trioxo-1,1a,3,4,5,6,9, 10,19,22,23,23a-dodecahydro-8H,17H-7,10-methanocyclo propa[18,19][1,10,3,6, 12]dioxatriazacyclo nonadecino[11,12-b]quinazoline-8-carboxamide] | 0.2 | 142 | 41 | – | –
